Laboratory results: patent US20250170155A1, “NUCLEOSIDE DERIVATIVES AND PRODRUGS THEREOF HAVING VIRAL GROWTH INHIBITORY ACTION” (Shionogi & Co., Ltd., priority 2021, published 2025)

Tests used:
Format in all cases: cell-based
[1] = system: influenza virus (A/WSN/33 (H1N1) strain); assay: CPE suppression effect confirmation test (influenza virus, RPMI 2650 cells), antiviral activity; details: for EC50: read-out: Influenza EC50 (50% CPE inhibitory concentration), A/WSN/33 (H1N1), 3 to 6 days
[2] = Cytotoxic activity evaluation, RPMI 2650 cells; details: human, no virus, 3 to 6 days
Experimental: (§1) <Operation Procedure (Cytotoxic Activity Evaluation)>
On the day before the compound treatment, cells prepared to an appropriate number were seeded in a 96 well plate at 100 μL/well. Thereafter, the cells were cultured in a CO2 incubator at 37° C. • Preparation of 2 μg/mL trypsin/0.5% BSA/MEM
Same as those described in the section for evaluation of antiviral activity • Dilution and dispensing of test substance
A 3- to 5-fold serial dilution series of test substances was prepared in DMSO in advance, and diluted with 2 μg/mL trypsin/0.5% BSA/MEM so that the final concentration of DMSO was 0.5% (100 to 200 μL/well). The cells were washed with MEM, and then cultured in a test substance-added medium for 3 to 6 days. Double measurement was performed for each drug. • Dispensing of resazurin solution
Same as those described in the section for evaluation of antiviral activity • Measurement of fluorescence intensity
(§2) Same as those described in the section for evaluation of antiviral activity
[formula] [formula] • Calculation of Selectivity Index (SI)

[3] = Cytotoxic activity evaluation, Vero E6/TMPRSS2 cells; details: African green monkey, no virus
Experimental: as §1
A 3- to 5-fold serial dilution series of test substances was prepared in DMSO, diluted with 2% FBS/MEM so that the concentration of DMSO was 2%, and dispensed into a 96 well plate (50 μL/well, DMSO final concentration 0.5%). • Dilution and dispensing of cells
The cells prepared to an appropriate number were seeded at 100 μL/well to the plate into which the test substance was dispensed. Thereafter, the cells were cultured in a CO2 incubator at 37° C. for 3 days. • Dispensing of CellTiter-Glo (registered trademark) 2.0 Reagent
Same as those described in the section for evaluation of antiviral activity • Measurement of luminescence intensity
as §2
Excel, TIBCO Spotfire, or a program having equivalent calculation processing capability based on the following calculation formula.

[4] = system: SARS-CoV-2 (hCoV-19/Japan/TY/WK-521/2020 strain); assay: CPE suppression effect confirmation test (SARS-CoV-2, Vero E6/TMPRSS2 cells), antiviral activity; details: for EC50: Severe acute respiratory syndrome coronavirus 2, VeroE6/TMPRSS2, 72 h, read-out: SARS-CoV-2 EC50 (50% CPE inhibitory concentration), 3 days culture
[5] = system: SARS-CoV-2 (hCoV-19/Japan/TY/WK 521/2020 strain); assay: microbe, parasite or virus in culture; details: HEK293T/ACE2-TMPRSS2 cells; for EC50: Severe acute respiratory syndrome coronavirus 2, HEK-293T, 72 h, read-out: SARS-CoV-2 EC50 (50% CPE inhibitory concentration), 293T-AT, 3 days culture

| Compound | Influenza SI (Selectivity Index) [1] | EC50 [1] | CC50 [2] | CC50 at 3 days [3] | SARS-CoV-2 SI (Selectivity Index) [4] | EC50 [4] | SARS-CoV-2 SI (Selectivity Index), 293T-AT [5] | EC50 [5] |
| --- | --- | --- | --- | --- | --- | --- | --- | --- |
| Nc1ncnc2c([C@@H]3O[C@H](CO)[C@@H](O)[C@H]3F)c[nH]c12 [Compound I-002] | >105 | 4.77 µM | > 500 µM |  |  |  |  |  |
| Nc1ncnn2c([C@@H]3N[C@H](CO)[C@@H](O)C3(F)F)ccc12 [Compound I-003] | >22.1 | 22.6 µM | > 500 µM |  |  |  |  |  |
| Nc1nc(F)nn2c([C@@H]3N[C@H](CO)[C@@H](O)[C@H]3O)ccc12 [Compound I-004] | >2.06 | 243 µM | > 500 µM |  |  |  |  |  |
| Cc1nc(N)c2ccc([C@@H]3N[C@H](CO)[C@@H](O)[C@H]3O)n2n1.Cl.Cl [Compound I-005] | >2.13 | 235 µM | > 500 µM |  |  |  |  |  |
| Nc1ncnn2c([C@@H]3N[C@H](CO)[C@@H](O)[C@H]3O)cc(F)c12 [Compound I-006] | 17 | 0.316 µM | 5.38 µM |  |  |  |  |  |
| CCC1[C@@H](c2ccc3c(N)ncnn23)[C@H](O)[C@H](O)[C@H]1CO (stereo partly drawn) [Compound I-007] | 1.06 | 473 µM | > 500 µM |  |  |  |  |  |
| Nc1ncnn2c([C@@H]3N[C@@H](CO)[C@@H](O)[C@H]3F)ccc12 [Compound I-009] | 1.23 | 406 µM | > 500 µM |  |  |  |  |  |
| Cl.Nc1ncnn2c([C@@H]3N[C@H](CO)[C@@H](O)[C@H]3O)cc(B(O)O)c12 [Compound I-011] | 11.2 | 6.7 µM | 75.1 µM |  |  |  |  |  |
| Nc1ncnc2c([C@@H]3N[C@H](CO)[C@@H](O)[C@H]3O)ccn12 [Compound I-012] | >281 | 1.78 µM | > 500 µM |  |  |  |  |  |
| Nc1ncnn2c([C@@H]3N[C@H](CO)[C@@H](O)[C@H]3F)ccc12 [Compound I-013] | >1.99 | 251 µM | > 500 µM |  |  |  |  |  |
| Nc1ncnc2c([C@@H]3O[C@H](CO)[C@@H](O)[C@H]3O)ccn12 [Compound I-014] | 69.7 | 0.188 µM | 13.1 µM |  |  |  |  |  |
| N=C(N)c1cc([C@@H]2N[C@H](CO)[C@@H](O)[C@H]2O)n2ncnc(N)c12 [Compound I-017] |  |  |  | > 500 µM | >11.1 | 44.9 µM |  |  |
| O=c1[nH]cnn2c([C@@H]3N[C@H](CO)[C@@H](O)[C@H]3O)ccc12 [Compound I-019] | >7.62 | 65.6 µM | > 500 µM |  |  |  |  |  |
| Cl.Nc1ncnn2c([C@@H]3N[C@H](CO)[C@@H](O)[C@H]3O)cc(-c3nccs3)c12 [Compound I-021] | >20.9 | 23.9 µM | > 500 µM |  |  |  |  |  |
| Nc1ncnn2c([C@@H]3N[C@H](CO)[C@@H](O)[C@H]3O)cc(/C=N\O)c12 [Compound I-026] | >518 | 0.965 µM | > 500 µM |  |  |  |  |  |
| Nc1ncnn2c([C@@H]3N[C@H](CO)[C@@H](O)[C@H]3O)cc(-c3cncs3)c12 [Compound I-027] | >48.5 | 10.3 µM | > 500 µM |  |  |  |  |  |
| N#CCc1cc([C@@H]2N[C@H](CO)[C@@H](O)[C@H]2O)n2ncnc(N)c12 [Compound I-028] | 20.6 | 4.95 µM | 102 µM |  |  |  |  |  |
| Cl.Nc1ncnn2c([C@@H]3N[C@H](CO)[C@@H](O)[C@H]3O)cc(-c3ccn[nH]3)c12 [Compound I-029] |  |  |  | 316 µM | 9.01 | 34.7 µM |  |  |
| Nc1ncnc2c([C@@H]3N[C@H](CO)[C@@H](O)[C@H]3O)cc(/C=N/O)n12 [Compound I-031] | >1.46 | 343 µM | > 500 µM |  |  |  |  |  |
| Cl.Nc1ncnn2c([C@H]3N[C@@H](CO)[C@H](O)[C@@H]3O)cc(B(O)O)c12 [Compound I-032] | >1.38 | 361 µM | > 500 µM |  |  |  |  |  |

| Compound | Influenza SI (Selectivity Index) [1] | EC50 [1] | CC50 [2] | CC50 at 3 days [3] | SARS-CoV-2 SI (Selectivity Index) [4] | EC50 [4] | SARS-CoV-2 SI (Selectivity Index), 293T-AT [5] | EC50 [5] |
| --- | --- | --- | --- | --- | --- | --- | --- | --- |
| Nc1ncnn2c([C@@H]3N[C@H](CO)[C@@H](O)[C@H]3O)cc(-c3ncc[nH]3)c12 [Compound I-033] |  |  |  | > 500 µM | >134 | 3.74 µM |  |  |
| OC[C@H]1N[C@@H](c2ccn3c(NO)ncnc23)[C@H](O)[C@@H]1O [Compound I-035] | >1.33 | 375 µM | > 500 µM |  |  |  |  |  |
| Cn1cnc(-c2cc([C@@H]3N[C@H](CO)[C@@H](O)[C@H]3O)n3ncnc(N)c23)c1 [Compound I-039] |  |  |  | > 500 µM | >6.02 | 83.1 µM |  |  |
| Cl.Cn1cc(-c2cc([C@@H]3N[C@H](CO)[C@@H](O)[C@H]3O)n3ncnc(N)c23)nn1 [Compound I-040] |  |  |  | > 500 µM | >5.93 | 84.3 µM |  |  |
| Nc1ncnn2c([C@@H]3N[C@H](CO)[C@@H](O)[C@H]3O)cc(-c3cccnc3)c12 [Compound I-041] | >76.2 | 5.56 µM | > 500 µM |  |  |  |  |  |
| N#C[C@@]1(c2cnc3c(N)ncnn23)O[C@H](CO)[C@@H](O)C1O (stereo partly drawn) [Compound I-042] |  |  |  | > 500 µM | >6.66 | 75.1 µM |  |  |
| Cc1cnc(-c2cc([C@@H]3N[C@H](CO)[C@@H](O)[C@H]3O)n3ncnc(N)c23)s1 [Compound I-043] | >2.46 | 203 µM | > 500 µM |  |  |  |  |  |
| CCn1cc(-c2cc([C@@H]3N[C@H](CO)[C@@H](O)[C@H]3O)n3ncnc(N)c23)cn1.Cl [Compound I-044] |  |  |  | 444 µM | 16.6 | 22.6 µM |  |  |
| Cl.Nc1ncnn2c([C@@H]3N[C@H](CO)[C@@H](O)[C@H]3O)cc(-c3nc4ccccc4s3)c12 [Compound I-045] |  |  |  | 96 µM | 25.4 | 3.78 µM |  |  |
| N#C[C@@]1(c2ccn3c(N)ncnc23)O[C@H](CO)[C@@H](O)[C@H]1O [Compound I-046] |  |  |  | 485 µM | 15.6 | 31.1 µM |  |  |
| Cc1nc(-c2cc([C@@H]3N[C@H](CO)[C@@H](O)[C@H]3O)n3ncnc(N)c23)c[nH]1.Cl [Compound I-047] |  |  |  | > 500 µM | >10.4 | 48.2 µM |  |  |
| Cl.Nc1ncnn2c([C@@H]3N[C@H](CO)[C@@H](O)[C@H]3O)cc(-c3n[nH]c4ccccc34)c12 [Compound I-049] |  |  |  | 397 µM | 5.7 | 69.6 µM |  |  |
| Cc1cc(-c2cc([C@@H]3N[C@H](CO)[C@@H](O)[C@H]3O)n3ncnc(N)c23)[nH]n1.Cl [Compound I-050] |  |  |  | > 500 µM | >11.0 | 45.4 µM |  |  |
| Cl.Nc1ncnn2c([C@@H]3N[C@H](CO)[C@@H](O)[C@H]3O)cc(-c3ccc(F)cn3)c12 [Compound I-051] |  |  |  | > 500 µM | >6.13 | 81.5 µM |  |  |
| Cl.Nc1nc(F)nn2c([C@@H]3N[C@H](CO)[C@@H](O)[C@H]3O)cc(-c3cc[nH]n3)c12 [Compound I-052] |  |  |  | > 500 µM | >79.7 | 6.27 µM |  |  |
| Nc1ncnn2c([C@@H]3N[C@H](CO)[C@@H](O)[C@H]3O)cc(-c3c[nH]nn3)c12 [Compound I-053] |  |  |  | 315 µM | 677 | 0.465 µM |  |  |
| N#C[C@@]1(c2ccc3c(N)ncnn23)O[C@H](CO)[C@@H](O)[C@H]1O [GS-441524, reference compound] |  | > 500 µM |  |  |  |  |  |  |
| Nc1ncnc2c([C@@H]3N[C@H](CO)[C@@H](O)[C@H]3O)c[nH]c12 [Galidesivir, reference compound] |  |  |  |  |  | > 100 µM | <5.3 | > 20 µM |
| Nc1ncnc2c([C@@H]3N[C@H](CO)[C@@H](O)[C@H]3O)cnn12 [WO2006002231 Example 13_9-4, reference compound] | 4.69 | 87.8 µM |  |  |  |  |  |  |
| Nc1ncnn2c([C@@H]3N[C@H](CO)[C@@H](O)[C@H]3O)ccc12 [WO2014078778 Example5_30 g, reference compound] | 73.7 | 0.471 µM |  |  | <0.41 | > 4 µM | <1.34 | > 4 µM |
